Reference: ChEMBL document CHEMBL3991601, “The target landscape of clinical kinase drugs” (Science, 2017)
Activity calls are given as the source filed them.

Tests used:
[1] = target: T1, cGMP-dependent protein kinase 1 (Homo sapiens, UniProt Q13976)
T1 sequence (Q13976 whole entry): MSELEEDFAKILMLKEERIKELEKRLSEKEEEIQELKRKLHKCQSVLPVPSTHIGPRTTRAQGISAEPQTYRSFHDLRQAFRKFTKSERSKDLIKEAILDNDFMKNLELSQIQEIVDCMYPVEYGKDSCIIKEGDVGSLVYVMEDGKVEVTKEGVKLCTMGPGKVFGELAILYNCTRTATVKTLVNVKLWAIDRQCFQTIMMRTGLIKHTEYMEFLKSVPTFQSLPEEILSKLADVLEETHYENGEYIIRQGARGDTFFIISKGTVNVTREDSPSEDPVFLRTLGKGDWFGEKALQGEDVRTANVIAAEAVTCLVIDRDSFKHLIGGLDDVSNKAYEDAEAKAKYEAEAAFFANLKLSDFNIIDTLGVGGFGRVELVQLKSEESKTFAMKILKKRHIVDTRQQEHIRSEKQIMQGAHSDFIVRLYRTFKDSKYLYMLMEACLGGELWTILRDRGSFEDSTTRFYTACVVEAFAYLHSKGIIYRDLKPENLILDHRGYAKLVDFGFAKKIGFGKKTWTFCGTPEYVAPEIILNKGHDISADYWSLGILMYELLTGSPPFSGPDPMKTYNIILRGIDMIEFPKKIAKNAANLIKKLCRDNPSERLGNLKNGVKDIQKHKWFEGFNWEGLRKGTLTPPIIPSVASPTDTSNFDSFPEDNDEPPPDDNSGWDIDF

[2] = target: T2, AarF domain-containing protein kinase 1 (Homo sapiens, UniProt Q86TW2)
T2 sequence (Q86TW2 whole entry): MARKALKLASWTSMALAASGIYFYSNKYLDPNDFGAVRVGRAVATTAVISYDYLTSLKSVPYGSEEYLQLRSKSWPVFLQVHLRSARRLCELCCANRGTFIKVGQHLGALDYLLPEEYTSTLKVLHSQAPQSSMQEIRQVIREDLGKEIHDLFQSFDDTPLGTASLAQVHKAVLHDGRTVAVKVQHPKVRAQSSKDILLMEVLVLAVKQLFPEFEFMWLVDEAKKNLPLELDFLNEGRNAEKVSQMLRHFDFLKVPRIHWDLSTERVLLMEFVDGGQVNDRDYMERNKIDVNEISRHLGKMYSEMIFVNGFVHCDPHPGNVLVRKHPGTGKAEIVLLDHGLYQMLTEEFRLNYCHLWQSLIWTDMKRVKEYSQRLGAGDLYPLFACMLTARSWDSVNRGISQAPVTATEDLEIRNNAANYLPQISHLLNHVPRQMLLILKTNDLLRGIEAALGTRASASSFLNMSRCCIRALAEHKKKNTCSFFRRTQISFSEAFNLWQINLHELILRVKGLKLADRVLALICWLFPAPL

[3] = target: T3, Structural maintenance of chromosomes protein 1A (Homo sapiens, UniProt Q14683)
T3 sequence (Q14683 whole entry): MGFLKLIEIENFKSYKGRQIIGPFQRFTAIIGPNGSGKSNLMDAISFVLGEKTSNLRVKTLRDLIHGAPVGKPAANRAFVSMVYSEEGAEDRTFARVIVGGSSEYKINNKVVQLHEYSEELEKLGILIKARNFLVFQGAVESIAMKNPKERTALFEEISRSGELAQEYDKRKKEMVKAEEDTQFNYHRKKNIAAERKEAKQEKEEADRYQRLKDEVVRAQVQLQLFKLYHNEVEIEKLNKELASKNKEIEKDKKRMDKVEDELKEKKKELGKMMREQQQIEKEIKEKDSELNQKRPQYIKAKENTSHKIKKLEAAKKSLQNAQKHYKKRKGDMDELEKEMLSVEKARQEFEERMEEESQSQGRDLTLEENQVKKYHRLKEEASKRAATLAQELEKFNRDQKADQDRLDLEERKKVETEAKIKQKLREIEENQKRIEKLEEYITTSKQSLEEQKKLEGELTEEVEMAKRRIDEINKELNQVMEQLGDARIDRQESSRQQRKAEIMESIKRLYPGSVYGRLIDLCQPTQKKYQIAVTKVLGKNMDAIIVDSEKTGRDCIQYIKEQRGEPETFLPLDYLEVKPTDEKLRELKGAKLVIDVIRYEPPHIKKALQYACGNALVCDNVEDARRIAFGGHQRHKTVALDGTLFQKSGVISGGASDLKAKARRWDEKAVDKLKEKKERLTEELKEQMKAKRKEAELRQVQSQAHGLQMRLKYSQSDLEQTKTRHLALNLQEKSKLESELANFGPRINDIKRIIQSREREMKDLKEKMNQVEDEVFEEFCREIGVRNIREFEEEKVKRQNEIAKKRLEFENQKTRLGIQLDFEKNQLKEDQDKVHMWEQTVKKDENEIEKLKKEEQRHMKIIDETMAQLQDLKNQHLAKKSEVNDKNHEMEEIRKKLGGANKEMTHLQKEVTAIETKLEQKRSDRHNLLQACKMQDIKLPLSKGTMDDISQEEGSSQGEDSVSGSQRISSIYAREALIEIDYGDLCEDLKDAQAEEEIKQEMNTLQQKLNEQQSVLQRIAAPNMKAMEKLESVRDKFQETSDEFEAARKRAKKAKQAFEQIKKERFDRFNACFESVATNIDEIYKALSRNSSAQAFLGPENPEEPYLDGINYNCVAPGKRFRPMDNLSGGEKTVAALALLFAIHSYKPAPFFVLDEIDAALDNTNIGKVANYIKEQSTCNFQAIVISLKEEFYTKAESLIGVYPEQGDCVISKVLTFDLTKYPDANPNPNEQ

[4] = target: T4, Pyridoxal kinase (Homo sapiens, UniProt O00764)
T4 sequence (O00764 whole entry): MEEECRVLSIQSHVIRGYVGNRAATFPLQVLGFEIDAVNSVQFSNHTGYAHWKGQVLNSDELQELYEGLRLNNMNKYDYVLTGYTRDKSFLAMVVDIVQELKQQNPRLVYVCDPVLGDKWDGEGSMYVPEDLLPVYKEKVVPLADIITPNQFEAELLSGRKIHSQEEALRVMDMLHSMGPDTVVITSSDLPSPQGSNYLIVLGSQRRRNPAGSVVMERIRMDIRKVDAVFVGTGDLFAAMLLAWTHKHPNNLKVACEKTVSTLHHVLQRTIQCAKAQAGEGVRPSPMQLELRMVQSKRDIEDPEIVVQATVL

[5] = target: Chromodomain-helicase-DNA-binding protein 4 (Homo sapiens, UniProt Q14839)
Chain of Chromodomain-helicase-DNA-binding protein 4 (Q14839 whole entry): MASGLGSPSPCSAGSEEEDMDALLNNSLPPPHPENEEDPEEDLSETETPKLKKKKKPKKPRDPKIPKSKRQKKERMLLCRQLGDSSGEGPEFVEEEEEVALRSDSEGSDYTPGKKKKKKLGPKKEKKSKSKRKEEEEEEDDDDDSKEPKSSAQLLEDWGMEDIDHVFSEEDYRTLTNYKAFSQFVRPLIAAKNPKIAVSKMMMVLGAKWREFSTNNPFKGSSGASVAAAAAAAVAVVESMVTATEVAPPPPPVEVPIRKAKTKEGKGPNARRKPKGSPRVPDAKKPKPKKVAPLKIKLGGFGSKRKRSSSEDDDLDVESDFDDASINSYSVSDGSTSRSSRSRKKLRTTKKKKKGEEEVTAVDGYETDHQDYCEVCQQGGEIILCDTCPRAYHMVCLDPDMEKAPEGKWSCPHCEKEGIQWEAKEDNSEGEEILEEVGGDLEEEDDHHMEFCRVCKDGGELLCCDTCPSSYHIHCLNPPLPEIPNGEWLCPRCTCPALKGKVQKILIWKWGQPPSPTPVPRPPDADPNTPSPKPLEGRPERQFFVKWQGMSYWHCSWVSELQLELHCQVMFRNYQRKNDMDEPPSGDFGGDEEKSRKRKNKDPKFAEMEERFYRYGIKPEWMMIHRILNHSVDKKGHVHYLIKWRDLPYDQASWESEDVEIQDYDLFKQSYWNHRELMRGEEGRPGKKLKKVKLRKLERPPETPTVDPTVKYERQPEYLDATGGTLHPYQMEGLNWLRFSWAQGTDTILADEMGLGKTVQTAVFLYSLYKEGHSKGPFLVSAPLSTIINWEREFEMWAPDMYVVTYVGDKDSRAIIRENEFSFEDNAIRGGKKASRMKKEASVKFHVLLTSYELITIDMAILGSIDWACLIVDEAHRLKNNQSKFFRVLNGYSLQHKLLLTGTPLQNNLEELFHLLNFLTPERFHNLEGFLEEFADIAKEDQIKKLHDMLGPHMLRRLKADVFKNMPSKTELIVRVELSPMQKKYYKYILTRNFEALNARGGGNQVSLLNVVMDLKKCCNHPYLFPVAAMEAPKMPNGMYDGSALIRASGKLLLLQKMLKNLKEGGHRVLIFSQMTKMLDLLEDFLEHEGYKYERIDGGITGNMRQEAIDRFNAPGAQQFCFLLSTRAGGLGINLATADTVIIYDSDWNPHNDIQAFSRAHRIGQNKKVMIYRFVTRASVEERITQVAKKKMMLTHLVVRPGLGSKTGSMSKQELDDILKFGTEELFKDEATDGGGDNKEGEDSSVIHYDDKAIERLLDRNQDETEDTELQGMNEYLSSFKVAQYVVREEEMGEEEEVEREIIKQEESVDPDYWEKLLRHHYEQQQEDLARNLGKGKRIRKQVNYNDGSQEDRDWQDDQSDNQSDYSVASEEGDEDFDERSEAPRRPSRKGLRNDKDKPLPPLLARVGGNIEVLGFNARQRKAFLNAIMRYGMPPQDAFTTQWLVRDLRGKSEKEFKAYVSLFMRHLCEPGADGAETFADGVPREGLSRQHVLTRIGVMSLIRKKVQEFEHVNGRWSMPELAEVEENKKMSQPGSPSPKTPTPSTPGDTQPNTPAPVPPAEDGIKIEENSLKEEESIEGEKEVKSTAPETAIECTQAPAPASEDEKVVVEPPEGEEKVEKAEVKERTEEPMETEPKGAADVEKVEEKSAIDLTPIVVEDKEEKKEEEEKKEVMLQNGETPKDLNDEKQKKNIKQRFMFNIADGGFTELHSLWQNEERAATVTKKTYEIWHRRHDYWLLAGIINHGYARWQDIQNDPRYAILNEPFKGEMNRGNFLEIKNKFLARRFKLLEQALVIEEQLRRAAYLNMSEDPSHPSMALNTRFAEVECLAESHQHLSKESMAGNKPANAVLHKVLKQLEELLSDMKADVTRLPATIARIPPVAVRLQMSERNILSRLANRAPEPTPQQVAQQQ

[6] = target: GTP-binding protein 4 (Homo sapiens, UniProt Q9BZE4)
Further: in the data inactive means no Kd found up to 30 µM.

Row | SMILES | Kd [1] | Kd [2] | Kd [3] | Kd [4] | Kd [5] | Kd [6]
1 | O=C(Nc1ccc(OC(F)(F)F)cc1)c1sccc1NCc1ccnc2ccccc12 [OSI-930] | > 30 µM (inactive) | > 30 µM (inactive) | > 30 µM (inactive) | > 30 µM (inactive) | > 30 µM (inactive) | > 30 µM (inactive)
2 | Cc1cc(Nc2nc(N[C@@H](C)c3ncc(F)cn3)ncc2Cl)n[nH]1 [AZD-1480] | > 30 µM (inactive) | > 30 µM (inactive) | > 30 µM (inactive) | > 30 µM (inactive) | > 30 µM (inactive) | > 30 µM (inactive)
3 | COc1cccc(Nc2ncnn3ccc(CN4CC[C@@H](N)[C@H](O)C4)c23)c1 [BMS-690514] | > 30 µM (inactive) | > 30 µM (inactive) | > 30 µM (inactive) | > 30 µM (inactive) | > 30 µM (inactive) | > 30 µM (inactive)
4 | COc1cc2ncnc3c2cc1OCCCCCN(C)Cc1ccc(Br)cc1N3 [JNJ-26483327] | > 30 µM (inactive) | > 30 µM (inactive) | > 30 µM (inactive) | > 30 µM (inactive) | > 30 µM (inactive) | > 30 µM (inactive)
5 | CCc1cc2c(cc1N1CCC(N3CCOCC3)CC1)C(C)(C)c1[nH]c3cc(C#N)ccc3c1C2=O [ALECTINIB] | > 30 µM (inactive) | > 30 µM (inactive) | > 30 µM (inactive) | > 30 µM (inactive) | > 30 µM (inactive) | > 30 µM (inactive)
6 | CNC(=O)c1cccc(-c2ccc3c(N4CCOC[C@@H]4C)nc(N4CCOC[C@@H]4C)nc3n2)c1 [VISTUSERTIB] | > 30 µM (inactive) | > 30 µM (inactive) | > 30 µM (inactive) | > 30 µM (inactive) | > 30 µM (inactive) | > 30 µM (inactive)
7 | C=CCn1c(=O)c2cnc(Nc3ccc(N4CCN(C)CC4)cc3)nc2n1-c1cccc(C(C)(C)O)n1 [ADAVOSERTIB] | > 30 µM (inactive) | 1.9 µM (active) | > 30 µM (inactive) | > 30 µM (inactive) | > 30 µM (inactive) | > 30 µM (inactive)
8 | CNC(=O)c1cc(COc2nnc(Nc3ccc(Cl)cc3)c3ccoc23)ccn1 [TELATINIB] | > 30 µM (inactive) | > 30 µM (inactive) | > 30 µM (inactive) | > 30 µM (inactive) | > 30 µM (inactive) | > 30 µM (inactive)
9 | Cn1c(=O)c(F)c(Nc2ccc(I)cc2F)c2c(=O)n(C[C@@H](O)CO)cnc21 [TAK-733] | > 30 µM (inactive) | > 30 µM (inactive) | > 30 µM (inactive) | > 30 µM (inactive) | > 30 µM (inactive) | > 30 µM (inactive)
10 | CC[C@@](C)(Nc1ccnc(-c2c[nH]c3ncccc23)n1)C(=O)NCC(F)(F)F [DECERNOTINIB] | > 30 µM (inactive) | > 30 µM (inactive) | > 30 µM (inactive) | > 30 µM (inactive) | > 30 µM (inactive) | > 30 µM (inactive)
11 | O=C(NOC[C@H](O)CO)c1ccc(F)c(F)c1Nc1ccc(I)cc1F [MIRDAMETINIB] | > 30 µM (inactive) | > 30 µM (inactive) | > 30 µM (inactive) | > 30 µM (inactive) | > 30 µM (inactive) | > 30 µM (inactive)
12 | CC(C)(O)CC(=O)NCCn1ccc2ncnc(Nc3ccc(Oc4cccc(C(F)(F)F)c4)c(Cl)c3)c21 [TAK-285] | > 30 µM (inactive) | > 30 µM (inactive) | > 30 µM (inactive) | > 30 µM (inactive) | > 30 µM (inactive) | > 30 µM (inactive)
13 | Cc1cc(C(=O)Nc2cc(Oc3ccc4nc(NC(=O)C5CC5)cn4n3)ccc2C)n(C)n1 [TAK-593] | > 30 µM (inactive) | > 30 µM (inactive) | > 30 µM (inactive) | > 30 µM (inactive) | > 30 µM (inactive) | > 30 µM (inactive)
14 | NC[C@@](O)(c1ccc(Cl)cc1)c1ccc(-c2cn[nH]c2)cc1 [AT-13148] | > 30 µM (inactive) | > 30 µM (inactive) | > 30 µM (inactive) | > 30 µM (inactive) | > 30 µM (inactive) | > 30 µM (inactive)
15 | COc1cc(Nc2ncc(F)c(Nc3ccc4c(n3)N(COP(=O)(O)O)C(=O)C(C)(C)O4)n2)cc(OC)c1OC [FOSTAMATINIB] | > 30 µM (inactive) | 1.07 µM (active) | > 30 µM (inactive) | > 30 µM (inactive) | > 30 µM (inactive) | > 30 µM (inactive)
16 | C[C@@H]1COC(Nc2ccc3ncnc(Nc4ccc(OCc5nccs5)c(Cl)c4)c3c2)=N1 [VARLITINIB] | > 30 µM (inactive) | > 30 µM (inactive) | > 30 µM (inactive) | > 30 µM (inactive) | > 30 µM (inactive) | > 30 µM (inactive)
17 | COCCN1CCN(Cc2ccc(-c3n[nH]c4c3C(=O)c3c(NC(=O)NN5CCOCC5)cccc3-4)cc2)CC1 [RGB-286638] | > 30 µM (inactive) | > 30 µM (inactive) | > 30 µM (inactive) | > 30 µM (inactive) | > 30 µM (inactive) | > 30 µM (inactive)
18 | CNC(=O)c1ccc(Nc2ncc(C(F)(F)F)c(NCc3nccnc3N(C)S(C)(=O)=O)n2)cc1 [DEFACTINIB] | > 30 µM (inactive) | > 30 µM (inactive) | > 30 µM (inactive) | > 30 µM (inactive) | > 30 µM (inactive) | > 30 µM (inactive)
19 | C=CC(=O)Nc1cccc(Nc2nc(Nc3ccc(N4CCN(C(C)=O)CC4)cc3OC)ncc2C(F)(F)F)c1 [ROCILETINIB] | > 30 µM (inactive) | > 30 µM (inactive) | > 30 µM (inactive) | > 30 µM (inactive) | > 30 µM (inactive) | > 30 µM (inactive)
20 | Cc1ccc(C(=O)Nc2ccc(Oc3cc4cnn(C)c4cc3-c3cn[nH]c3)c(F)c2)c(=O)n1-c1ccc(F)cc1 [MERESTINIB] | > 30 µM (inactive) | > 30 µM (inactive) | > 30 µM (inactive) | > 30 µM (inactive) | > 30 µM (inactive) | > 30 µM (inactive)
